Test results taken from patent publication US8710246B2, “Substituted thiophene pentamers” (Biochromix Newco AB, priority 2008, dated 2014).
“Also recorded” adds a separate entry of the source.

Experiments:
Aβ deposits = assay: Long term in vivo effects on amyloid plaques in transgenic mice, cranial window, multiphoton spectroscopy; details: tail vein injection, 10 mg/kg
Excerpt: This long lasting binding to the plaques is advantageous for a long term therapeutic effect of the inventive compounds.

Aβ peptide 1-42 = target: T1, Aβ peptide 1-42 (Homo sapiens, UniProt P05067); assay: In vitro fibrillation of Aβ peptide 1-42 followed by TEM; format: biochemical; details: for fibrillation morphology by TEM: 20 μM Aβ 1-42, 37° C.
T1 construct: Aβ peptide 1-42 was dissolved in hexafluoroisopropanol
T1 sequence (P05067 672-713 limits assumed): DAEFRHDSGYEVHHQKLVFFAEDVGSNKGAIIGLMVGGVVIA
Method: Aβ peptide 1-42 was dissolved in hexafluoroisopropanol to a concentration of 1 mg/mL and further diluted to 20 μM in Tris-HCl 5 mM, 75 mM NaCl. The inventive compounds F and G were added in concentrations from 10 to 100 μM and the samples, including references without the inventive compounds, were incubated at 37° C. to initiate fibrillation. After Oh, 20 h and 66 h aliquots were withdrawn, deposited on formvar-carbon coated TEM grids and negatively stained using uranylacetate. A Phillips CM200 run at 200 kV was used to study the progress of fibrillation in the different samples. […] (at Oh). […] These aggregates were covering most of the TEM grid and no smaller fibril or oligomer like structures could be seen. After 66 h of incubation no major change in morphology compared to the 20 h samples could be seen, sheets with separate visible fibrils were found at high density on the grid, of a typical morphology illustrated in FIG. 3.

primary chicken neurons = assay: Aβ1-42 induced lesions in primary chicken neurons, MTT viability assay; format: cell-based
Method: T:I 1: p-HTAA, Mw=529 g/mol, diluted in vehicle from stock solution in PBS+1.33% DMSO (10 mg/ml).
T:I 2: POWT-13, Mw=2782 g/mol, diluted in vehicle from stock solution in deionized water (40 mg/ml).
Cell source: Telencephalon neurons from 8-day-old chicken embryos (Lohman Brown hybrid)
Nutrition medium: DMEM with 4.5 g glucose/1, 5% Nu Serum, 0.01% gentamycin, 2 mM L-glutamine
Group size: n=6 for each T.I. and R.I. concentration per experiment
Lesion: 10 μM Aβ1-42 (pre-aggregated for 48 h) at DIV8 for 48 h
Evaluation of the effects: MTT on DIV 10
One-day-old fertilized eggs will be stored under appropriate conditions until start of breeding. On embryonic day 0 eggs will be transferred to the breeding incubator and under turning kept at 37.8° C. and 55% humidity until embryonic day eight. […]
Viability of cultures will be determined with the MTT assay using a plate-reader (570 nm) as described e.g. in SOP MET004. […] Since this reaction is catalysed in living cells only this assay can be used for the quantification of cell viability. […] To estimate optical density, a plate-reader (Anthos HT II or pquant) is used at wavelength 570 nm. […]
After 48 hours of incubation of T.I. and Aβ1-42 on cells (DIV10), viability of neurons will be analysed by the MTT assay.

crossing of the blood brain barrier after intravenous injection (Aβ deposits; transgenic mice with AD-like pathology): readily cross the blood brain barrier | effect on the fibrillation of Aβ peptide 1-42 (Aβ peptide 1-42; overall conclusion, 20 h and 66 h): major effect
SMILES: O=C(O)Cc1cc(-c2cccs2)sc1-c1ccc(-c2sc(-c3cccs3)cc2CC(=O)O)s1 [Compound G]
binding to Aβ deposits in living mouse brain one week after injection (Aβ deposits; one week after injection): binding of the inventive compounds to AP deposits could still be observed; also recorded: bound to Aβ deposits in living mouse brain one week after injection | fibrillation morphology by TEM (Aβ peptide 1-42; 10 μM compound, 20 h): no dense aggregates resembling those in the reference sample; also recorded: low density of oligomer like structures | fibrillation morphology by TEM (Aβ peptide 1-42; 100 μM compound, 20 h): no dense aggregates resembling those in the reference sample; also recorded: low density of short branched fibrils with a very low contrast; also recorded: Short branched fibrils | fibrillation morphology by TEM (Aβ peptide 1-42; 100 μM compound, 66 h): very few separate short proto-fibrils; also recorded: Short proto-fibrils | viability of neurons (MTT) (primary chicken neurons; test item added to Aβ1-42 during aggregation, then on cells 48 h, FIG. 12): better viability compared to 10 μM Aβ1-42 alone | viability of neurons (MTT) (primary chicken neurons; test item and pre-aggregated 10 μM Aβ1-42 applied on neurons simultaneously, 48 h, FIG. 11): better viability compared to 10 μM Aβ1-42 alone
